Data reported in paper PMC4788259 (PLoS Neglected Tropical Diseases, 2016).
“And” between values parts separate entries of the source, which are not always exact repeats. Equal values may be shown once. Read-outs that look alike come from different tables or passages of the source.

Key:
[1] = tested on: Reuber rat hepatoma (RH) cells; assay: alamarBlue viability assay on RH cells; format: cell-based; details: 120 h, 5 days
Experimental: For testing growth inhibitory effects on confluent host cells, cells were seeded in 96-well plates (10,000 cells per well for HFF and 50,000 cells per well for RH cells), in DMEM containing FBS (10%) and antibiotics (100 U penicillin, 100 μg streptomycin and 0.25 μg amphotericin B per mL medium) and were cultured overnight at 37°C, 5% CO2. Thereafter the drugs (10 μM) were added and diluted in a serial 1:2 dilutions down to 20 nM. The concentration range was further adjusted in subsequent setups. For testing growth inhibitory effects on proliferating cells, cells were seeded at 1,000 (HFF) and 5,000 (RH) cells per well, and were allowed to attach for 5 hours at 37°C before addition of the drugs. After 5 days of culture, cell viability was assessed by alamarBlue assay.

[2] = tested on: E. multilocularis germinal layer cells; assay: CellTiter-Glo viability assay on germinal layer cell cultures; format: cell-based; details: Echinococcus multilocularis, 120 h, 5 days, read-out: E.m. GL cells (IC50)
Experimental: To assess the effects of MMV665807 on the viability of parasite cells, germinal layer cells were extracted according to Spiliotis et al. After overnight aggregate formation, 15 units of cells were distributed to a black 384 well plate (Nunc, Thermo Scientific, Reinach, Switzerland) in 12.5 μL medium. A concentration series (final concentrations of 3, 1, 0.3, 0.1, 0.03, 0.01 μM) of MMV665807, MMV665794 and mefloquine were prepared in medium and added 1:2 to the cells. For mefloquine, the concentration range was adjusted in a subsequent setup up to 100 μM. As negative control, DMSO was added accordingly. After 5 days of culture at 37°C under humid nitrogen atmosphere, 25 μL CellTiter-Glo (Promega, Dübendorf, Switzerland) including 1% TritonX-100 was added. Plates were incubated for 15 minutes on a shaker at room temperature and complete disruption of all cell aggregates was checked for before measurement of luminescence on a 2300 Enspire multilabel reader (Perkin-Elmer). Mean values and standard deviations were calculated and DMSO values set to 100% viability. The IC50 value was calculated in Microsoft Excel 2010 after logit-log transformation and averages as well as standard deviations of four independent setups were calculated.

[3] = tested on: E. multilocularis metacestodes; assay: Transmission electron microscopy of treated metacestodes; format: cell-based, Echinococcus multilocularis; details: 5 days
Experimental: In vitro-cultured metacestodes were cultured for five days in the presence of 1.6, 0.8, 0.4 or 0.1 μM MMV665807, or in the absence of the drug, and were processed for TEM as previously described. In short, primary fixation was carried out in 2% glutaraldehyde in 0.1 M sodium-cacodylate buffer, pH 7.3 for 1 h, and post-fixation in 2% osmium tetroxide in 0.1 M sodium-cacodylate buffer for 2 h. Samples were then pre-stained in saturated uranyl acetate solution in water for 30 min, washed in water, and were stepwise dehydrated in ethanol (30%, 50%, 70%, 90%, and three times 100%). Subsequently specimens were embedded in epoxy resin and polymerization of the resin was carried out at 60°C for 12 h. Ultrathin sections were cut using an ultramicrotome (Reichert and Jung, Vienna, Austria), and were loaded onto formvar-carbon coated nickel grids (Plano GmbH, Marburg, Germany). Specimens were stained with uranyl acetate and lead citrate, and were viewed on a Phillips EM400 transmission electron microscope operating at 80 kV.

[4] = tested on: newly transformed schistosomula; design: method as in PMID 24416463; details: in vitro; read-out: IC50 against newly transformed schistosomula; cited from earlier work
[5] = tested on: M. tuberculosis; design: method as in PMID 23211970; details: cited from earlier work
[6] = tested on: T. gondii; design: method as in PMID 22970937; details: cited from earlier work
[7] = design: method as in earlier work; details: ref MMV; cited from earlier work
[8] = tested on: hERG; design: method as in earlier work; details: ref MMV, cited from earlier work

O=C(Nc1cccc(C(F)(F)F)c1)c1cc(Cl)ccc1O [MMV665807]
IC50 ([1]; confluent cells, read-out: Confluent RH (IC50)): 20.5 ± 0.13 µM
IC50 ([1]; proliferating cells, read-out: Preconfluent RH (IC50)): 4.3 ± 0.14 µM
IC50 [2]: 600 ± 370 nM
ultrastructural alterations (TEM) ([3]; 0.1 μM and 0.4 μM): did not show any major alterations
ultrastructural alterations (TEM) ([3]; 0.8 μM): Clear alterations in the Echinococcus ultrastructure
ultrastructural alterations (TEM) ([3]; 1.6 μM): clear signs of cell death
IC50 [4]: 1800 nM
MIC [5]: 3.1 to 6.3 µM
in vitro activity against T. gondii [6]: moderate in vitro activity
Kinetic Solubility pH=7.4 [7]: 1.12 µg/mL and 3.55 µM
hERG % I (1uM) ([8]; 1uM): 18%
hERG % I (11uM) ([8]; 11uM): 40%
hERG activity level [8]: Weakly active
